Measurements from US10307409B2, “Muscarinic combinations and their use for combating hypocholinergic disorders of the central nervous system” (Chase Pharmaceuticals Corporation, priority 2015, dated 2019).

Columns and labels:
[1] = transdermal [14C]oxybutynin, rats; cited from earlier work
Male Swiss mice [2] = assay: Antagonism of xanomeline-induced diarrhea in mice by oxybutynin (fecal pellet count); format: in vivo; settings: i.p. oxybutynin 0.3 to 30 mg/kg, 30 min before xanomeline 30 mg/kg
Method: Male Swiss mice (4-6 weeks old), N=10 per treatment group were used. Animals were pretreated with i.p. oxybutynin (a representative peripheral muscarinic receptor antagonist) or vehicle; 30 minutes later animals were treated with xanomeline at a dose of 30 mg/kg that caused diarrhea (as determined in Experiment 1). The dose of oxybutynin ordinarily ranged from 0.3 to 30 mg/kg.
Mice were placed individually in cages without any bedding materials. During the experiment the number of fecal pellets was counted at different time-points as outlined below: • T−1 h to T0: counting of the accumulated fecal pellets excreted. • T0: administration of oxybutinin. • T30 min: administration of vehicle or xanomeline. • T 30 min to T 2.5 h: counting of accumulated fecal pellets excreted. • T+2.5 h to T+4.5 h: counting of accumulated fecal pellets excreted.
(§1) The total number of fecal pellets for each mouse was counted over time. An analysis of variance (ANOVA) was performed on the results. Fisher's Protected Least Significant Difference was used for pairwise comparisons. The p value ≤0.05 were considered significant. Grubbs' test (http//www atgraphpad.com/quickcalcs/Grubbs1.cfm) was used to detect outliers for each parameter in each experimental group.

Male Swiss mice [3] = assay: T-maze continuous alternation task (T-CAT) with oxybutynin and xanomeline; format: in vivo; settings: i.p. oxybutynin pretreatment 30 min before xanomeline
Text: The T-maze continuous alternation task (T-CAT) is useful as model for studying compounds with cognitive enhancing properties. The T-maze consists of 2 choice arms and 1 start arm mounted to a square center. Manual doors are provided to close specific arms during the force choice alternation task.
Male Swiss mice (4-6 weeks old), N=10 per treatment group were used, and were pretreated with: • Oxybutynin at the dose that blocked fecal pellet excretion in Study 2 of Example 1.
Mice were randomly assigned to one of the different experimental treatment groups. Each animal was identified by its group name, cage number, series (day) of experiment, and number (1 to 10) written with permanent ink on the tail.
The T-maze apparatus is made of gray Plexiglas with a main stem (55 cm long×10 cm wide×20 cm high) and two arms (30 cm long×10 cm wide×20 cm high) positioned at 90 degree angle relative to the main stem. A start box (15 cm long×10 cm wide) is separated from the main stem by a guillotine door. […]
The percentage of alternation over the 14 free-choice trials was determined for each mouse and was used as an index of working memory performance. […]
Analysis of variance (ANOVA) was performed on the results. […] The drug-induced improvement of memory was calculated by setting the respective response of the saline/vehicle as 100% and that of the test group as 0% reversion. […]

[4] = clinical study, Sramek 1995; cited from earlier work
Male Swiss mice [5] = assay: Dose-response to xanomeline in a mouse model of diarrhea (fecal pellet count); format: in vivo; settings: xanomeline i.p. 0.3 to 30 mg/kg
Text: Male Swiss mice (4-6 weeks old), N=10 per treatment group were used, and treated intra-peritoneally (i.p.) with either vehicle (vehicle group) or increasing doses of xanomeline, a representative muscarinic agonist. Mice were randomly assigned to one of two experimental groups (vehicle; or increasing doses of xanomeline). Each animal was identified by its group name, cage number, series (day) of experiment, and number (1 to 10) written with permanent ink on the tail.
Mice were placed individually in cages without any bedding materials. During the experiment the number of fecal pellets were counted at different time-points, starting one hour before the time of the administration of the test compound (T0), as outlined below: • T−1 h to T0: counting of the accumulated fecal pellets excreted. • T0: administration of the test compound, • T0 to T+2 h: counting of the accumulated fecal pellets excreted. • T+2 h to T+4 h: counting of the accumulated fecal pellets excreted.
as §1, with “comparisons;” for “comparisons. The”, “values” for “value”, “(http://www.graphpad.com/quickcs/Grubbs1.cfm)” for “(http//www atgraphpad.com/quickcalcs/Grubbs1.cfm)”

[6] = system: patients with Alzheimer disease; settings: cited from earlier work
[7] = system: patients with Alzheimer disease; assay: Xanomeline 6-month double-blind, placebo-controlled, parallel group trial in Alzheimer disease patients; format: in vivo, human; settings: in view of Mirza 2003; i.e. 225 mg/day
Text: A close analog of tazomeline, the 3-(4-hexyloxy-1,2,5-thiadiazol-3-yl)-1-methyl-5,6-dihydro-2H-pyridine known as xanomeline and described in U.S. Pat. No. 5,043,345, the disclosure of which is incorporated herein by reference in its entirety, has been disclosed as a muscarinic acetylcholine receptor agonist with reasonable selectivity for the M1 and M4 subtypes. The efficacy of xanomeline, which stimulates muscarinic receptors in the brain and in the periphery was studied in patients with Alzheimer disease in a 6-month double-blind, placebo-controlled, parallel group trial. […] Such side effects prevented the use of doses of xanomeline that could achieve maximum anti-dementia efficacy and reflect stimulation of cholinergic receptors outside the brain.
Dose-limiting adverse events attending the use of drugs that stimulate cholinergic transmission, such as xanomeline, appear to primarily reflect the excessive stimulation of peripheral cholinergic receptors, especially those of the muscarinic type (mAChRs), such that in both healthy volunteers and Alzheimer's patients many of these side effects have been reported for xanomeline; in the patient population this led to a discontinuation rate higher than 50% while the effects on cognition were not robust and mainly seen at the highest doses tested (Mirza2003).

[8] = clinical trials, Alzheimer disease; cited from earlier work
primate = primate study, domperidone administered with BuTAC; cited from earlier work

CCN(CC)CC#CCOC(=O)C(O)(c1ccccc1)C1CCCCC1 (stereo not drawn) [oxybutynin, 4-diethylaminobut-2-ynyl 2-cyclohexyl-2-hydroxy-2-phenylethanoate]
brain penetration of radiolabel [1]: presence of radiolabel in the brain | antagonism of xanomeline-induced diarrhea (Male Swiss mice [2]): dose-dependently antagonized the diarrhea induced by xanomeline | ability to perform the T-maze test after oxybutynin pretreatment (Male Swiss mice [3]): restored the animals' ability to perform the T-maze test

CCCCCCOc1nsnc1C1=CCCN(C)C1 [xanomeline, 3-(4-hexyloxy-1,2,5-thiadiazol-3-yl)-1-methyl-5,6-dihydro-2H-pyridine]
MTD [4]: 100 mg three times a day | diarrhea (fecal pellets excreted) (Male Swiss mice [5]): dose-dependently causes diarrhea | patients who discontinued treatment ([6]; 75 mg xanomeline orally three times daily, 6-month study, mainly adverse events, predominantly gastrointestinal): 59% | cognitive and behavioral symptoms of Alzheimer disease compared to placebo ([6]; 6-month trial (Bodick 1997; Shekhar 2008)): significantly improve cognitive and behavioral symptoms | side effects (bradycardia, gastro-intestinal distress, excessive salivation, sweating) ([6]; 6-month trial): dose-dependent unacceptable side effects | discontinuation rate in the patient population ([6]; Alzheimer's patients (Mirza 2003)): higher than 50% | maximum tolerated dose as considered in the context of the present invention [7]: 75 mg three times per day

CO/N=C/C1=CCCN(C)C1 [milameline, (E)-N-methoxy-1-(1-methyl-1,2,5,6-tetrahydropyridin-3-yl)methanimine]
maximum tolerated dose [8]: 2 mg four times per day

O=c1[nH]c2ccccc2n1CCCN1CCC(n2c(=O)[nH]c3cc(Cl)ccc32)CC1 [domperidone, 5-chloro-1-(1-[3-(2-oxo-2,3-dihydro-1H-benzo[d]imidazol-1-yl)propyl]piperidin-4-yl)-1H-benzo[d]imidazol-2(3H)-one]
effect on BuTAC-induced vomiting (primate): mitigated
